From patent publication US7897770B2 (General Electric Company, priority 2007, dated 2011)

Molecular target: T1, VMAT-2 (Homo sapiens, UniProt Q05940)
T1 construct: Novascreen Biosciences Corporation (contract assay provider) protocol Cat. No. 100-0751
Assay: VMAT-2 binding affinity measurement, Novascreen protocol Cat. No. 100-0751
Details: for Ki: VMAT-2 binding affinity
Experimental: VMAT-2 binding affinity measurements were carried out by Novascreen Biosciences Corporation (Hanover, Md., USA) using protocol Cat. No. 100-0751. Novascreen, Inc. is a commercial provider of biological assays for the pharmaceutical industry.

T1 sequence (Q05940 whole entry, species assumed): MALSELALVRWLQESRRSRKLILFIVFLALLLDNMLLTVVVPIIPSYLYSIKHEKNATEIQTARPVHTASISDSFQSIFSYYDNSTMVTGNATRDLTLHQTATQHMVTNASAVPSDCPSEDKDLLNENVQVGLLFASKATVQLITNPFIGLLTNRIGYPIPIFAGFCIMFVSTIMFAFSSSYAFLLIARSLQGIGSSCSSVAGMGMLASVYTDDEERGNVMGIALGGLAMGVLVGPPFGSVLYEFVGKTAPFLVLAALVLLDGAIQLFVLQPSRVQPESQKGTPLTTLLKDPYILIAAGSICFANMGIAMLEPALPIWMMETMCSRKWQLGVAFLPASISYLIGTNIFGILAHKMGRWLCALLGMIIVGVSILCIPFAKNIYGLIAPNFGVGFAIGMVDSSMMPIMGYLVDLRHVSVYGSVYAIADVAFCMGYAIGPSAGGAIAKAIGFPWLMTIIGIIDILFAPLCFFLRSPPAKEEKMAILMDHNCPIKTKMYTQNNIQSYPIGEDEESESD

SMILES | VMAT-2 binding affinity, in words | Ki [nM]
COc1cc2c(cc1OC)[C@H]1C[C@@H](OCCF)[C@H](CC(C)C)CN1CC2 [Compound 22] | very high binding affinity | 3.2
COc1cc2c(cc1OC)[C@H]1C[C@@H](OCCCF)[C@H](CC(C)C)CN1CC2 [Compound 23] | very high binding affinity | 6.4
